The target of data set [1] is T1, human Kv1.1 (Homo sapiens, UniProt Q09470).
T1 construct: expressed in transfected cells; host or cells: CHO
In words: cell-based.

Data set [2] addresses T2, human Kv1.2 (Homo sapiens, UniProt P16389).
T2 construct: expressed in transfected cells; host or cells: CHO
In words: cell-based.

In data set [3] the target is T3, human Kv1.6 (Homo sapiens, UniProt P17658).
T3 construct: expressed in transfected cells; host or cells: CHO
Description: cell-based.

The subject of data set [4] is Human peripheral blood mononuclear cells (PBMCs). It counts as cell-based. The following applies: geometric mean, at least 4 replicates, Example 5a. On the procedure: Human peripheral blood mononuclear cells (PBMCs) were used to assess the effects of Kv1.3 blocker reference compounds on T-cell activation as determined by IL-2 (cytokine) release after stimulation with anti-CD3.
Human PBMCs were obtained from Precision for Medicine (Frederick, MD). Cells from 5 donors were used. Plate-bound anti-CD3 was used to stimulate bulk T cells in the PBMC preparations. Briefly, 96-well plates were coated with anti-CD3 antibody for 2 hrs at 37° C., using 50 μL of a 0.5 μg/mL anti-CD3 solution diluted in 1×PBS. Thereafter the plates were washed twice.
Kv1.3 blockers as shown in Table 8a were diluted in medium (RPMI 1640 with Glutamax-I containing 10% v/v Fetal Bovine Serum, 1% v/v penicillin-streptomycin solution) and added in a volume of 100 μL at concentrations ranging from 0.01 pM to 100 nM (tenfold dilutions). […] Finally, 1×10^5 PBMCs were added to each well in a volume of 100 μL, giving a final volume of 200 μL per well. The plates were incubated for 20-24 hours in a 37 °C/5% CO2 incubator. After centrifugation of the plates, 25 μl supernatant was transferred to IL-2 detection plates (MSD Human IL-2 Tissue Culture Kit, cat #K151AHB-2) and IL-2 was measures as described by the manufacturer (Meso Scale Discovery, Rockville, Maryland, USA).
Results are shown in Table 8a as geometric mean of IC50 values obtained from anti-CD3 stimulated human PBMC assays. All values derive from at least 4 replicates.

The target of data set [5] is T4, human Kv1.3 voltage-gated K+ channel (Homo sapiens, UniProt P22001).
T4 construct: host or cells: CHO-DUKX
Description: Kv1.3 blocker activity in FLIPR thallium assay. It counts as cell-based. On the procedure: A human Kv1.3 voltage-gated K+ channel cell line was purchased from Perkin Elmer (#TDS-AX-010-C-1). The cell line is based on CHO-DUKX cells stably transfected with the human Kv1.3 voltage-gated K+ channel.
The cell line was grown in MEMα with nucleotides, GlutaMAX (Gibco #32571028), 10% Foetal Bovine Serum (FBS), 0.4 mg/ml Geneticin, 100 units/ml Penicillin, and 100 μg/ml Streptomycin and seeded at 10.000 cells/well in black poly-D-lysine-coated 96 well plates.
The FluxOR™ Potassium Ion Channel Assay (Invitrogen #F10016) was used to quantitate flux of thallium ions into the cells as a response to Kv1.3 activation with a stimulus buffer causes depolarization of the cell membrane, thereby generating a fluorescent signal, proportional to channel activity. The assay was performed as described by the assay kit manufacturer including a compound pre-incubation step (30 min, 37° C., 5% CO2) in assay buffer containing 0.02% W/v casein from bovine milk (Sigma #C4765) prior to cell membrane depolarization using a final stimuli buffer composition corresponding to 0.2× FluxOR™ chloride-free buffer, 5 mM K2SO4, 1 mM Tl2SO4. The fluorescence responses were recorded and quantified (maximum response at 50 s, 37° C.) using the FLIPR® Tetra High Throughput Screening System (Molecular Devices, Inc.).
IC50 can be regarded as a measure of potency of inhibition for the respective compound. The IC50 value is a measure of the concentration of an inhibitor required to achieve half of that compound's maximal inhibition of ion channel activity in a given assay.

The nature of data set [6]: Pharmacokinetic characterisation after single s.c. injection in Sprague Dawley rats. The following applies: male, rat, plasma, sc, 100 nmol/kg. On the procedure: Sprague Dawley (males with a body weight of approximately 250-350 g) were given a single subcutaneous (s.c.) injection of each peptide to be tested.
Following s.c. administration of the selected compounds (dose 100 nmol/kg, dosing volume either 2 mL/kg), blood samples were drawn at 5 min, 15 min, 30 min, 60 min, 2 h, 3 h, 4 h, 6 h, 8 h post-dose. At each sampling time point, samples from the rats were drawn by sublingual bleeding. After last sampling the rats were sacrificed by O2/CO2 anaesthesia. The dosing vehicle was 10 mM phosphate, 0.8% NaCl, 0.05% Polysorbate 20 (pH 6.0).
Plasma samples were analyzed after solid phase extraction (SPE) by liquid chromatography mass spectrometry (LC-MS/MS). Mean plasma concentrations were used for calculation of the pharmacokinetic parameters using the non-compartmental approach in Phoenix WinNonlin 6.4 or a later version. Plasma terminal elimination half-life (T½) was determined as In(2)/λz where λz is the magnitude of the slope of the log linear regression of the log concentration versus time profile during the terminal phase. AUCinf is the area under the plasma concentration—time curve extrapolated to infinity (AUCinf=AUClast+Clast/λz, where Clast is the last observed plasma concentration). Cmax is the maximum observed concentration, occurring at Tmax.

Data set [7] has as its target Rat whole blood (Rattus norvegicus, UniProt P15384). Type of data set: cell-based. The following applies: IL-17A release, thapsigargin, 24 Hr, at least 2 replicates.
Data set [8] has as its system KLH ear inflammation model in rats. Type of data set: in vivo, rat. The following applies: 100 nmol/kg SC 24 hrs prior to KLH ear challenge; +/− SD.
The mark [9] stands for this setting: ratio of patch clamp IC50 values.

Where “and” joins values, the source holds several entries; their conditions need not be identical. Equal values may be shown once. Read-outs that look alike come from different tables or passages of the source. Where a SMILES comes first, the peptide text is derived from it. Bridges are numbered along the chain shown (N, C = ends). [ ]: non-standard residue; d: D form. Nle = CCCC[C@H](N)C(=O)O

T3 sequence (P17658 whole entry): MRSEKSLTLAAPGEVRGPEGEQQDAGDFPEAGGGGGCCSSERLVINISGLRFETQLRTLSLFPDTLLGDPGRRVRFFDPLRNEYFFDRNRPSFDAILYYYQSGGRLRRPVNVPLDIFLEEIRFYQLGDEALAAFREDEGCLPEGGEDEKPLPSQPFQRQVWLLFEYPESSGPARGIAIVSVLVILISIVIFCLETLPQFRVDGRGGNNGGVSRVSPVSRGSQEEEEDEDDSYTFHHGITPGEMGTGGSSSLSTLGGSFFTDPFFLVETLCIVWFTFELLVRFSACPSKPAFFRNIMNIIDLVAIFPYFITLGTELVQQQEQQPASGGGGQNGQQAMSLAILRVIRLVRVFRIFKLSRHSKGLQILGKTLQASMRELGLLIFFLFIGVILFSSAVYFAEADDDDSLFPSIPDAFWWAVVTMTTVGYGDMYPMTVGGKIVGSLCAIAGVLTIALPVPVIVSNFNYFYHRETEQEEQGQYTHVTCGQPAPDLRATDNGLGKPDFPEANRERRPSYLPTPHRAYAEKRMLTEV
T1 sequence (Q09470 whole entry): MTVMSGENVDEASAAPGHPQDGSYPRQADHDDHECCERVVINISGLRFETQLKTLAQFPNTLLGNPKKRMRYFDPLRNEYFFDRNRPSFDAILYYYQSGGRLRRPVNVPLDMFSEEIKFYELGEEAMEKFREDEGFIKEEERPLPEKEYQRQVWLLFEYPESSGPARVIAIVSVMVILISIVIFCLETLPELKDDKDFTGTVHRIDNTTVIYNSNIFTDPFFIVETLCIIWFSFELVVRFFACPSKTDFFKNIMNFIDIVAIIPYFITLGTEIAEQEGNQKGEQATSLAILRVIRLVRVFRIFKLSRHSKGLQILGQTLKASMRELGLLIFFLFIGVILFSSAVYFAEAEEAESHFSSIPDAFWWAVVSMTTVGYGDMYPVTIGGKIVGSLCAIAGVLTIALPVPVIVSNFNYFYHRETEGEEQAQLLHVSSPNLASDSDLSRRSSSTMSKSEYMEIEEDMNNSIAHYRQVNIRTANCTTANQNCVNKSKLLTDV
T2 sequence (P16389 whole entry): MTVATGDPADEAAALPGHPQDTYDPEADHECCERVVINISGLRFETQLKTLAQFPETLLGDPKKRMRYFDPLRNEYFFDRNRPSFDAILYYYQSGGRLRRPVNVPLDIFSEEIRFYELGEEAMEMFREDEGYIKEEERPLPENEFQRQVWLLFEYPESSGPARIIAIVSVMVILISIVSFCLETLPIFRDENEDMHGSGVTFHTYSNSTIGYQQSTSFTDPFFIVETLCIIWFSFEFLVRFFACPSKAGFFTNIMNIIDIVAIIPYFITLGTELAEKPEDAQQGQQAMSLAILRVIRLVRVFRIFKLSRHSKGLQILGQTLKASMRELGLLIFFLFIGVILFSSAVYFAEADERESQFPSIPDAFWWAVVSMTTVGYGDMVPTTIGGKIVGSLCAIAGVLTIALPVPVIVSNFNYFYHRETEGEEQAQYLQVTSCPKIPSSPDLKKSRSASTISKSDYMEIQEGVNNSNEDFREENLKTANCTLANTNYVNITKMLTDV
Sequence of Rat whole blood (P15384 whole entry): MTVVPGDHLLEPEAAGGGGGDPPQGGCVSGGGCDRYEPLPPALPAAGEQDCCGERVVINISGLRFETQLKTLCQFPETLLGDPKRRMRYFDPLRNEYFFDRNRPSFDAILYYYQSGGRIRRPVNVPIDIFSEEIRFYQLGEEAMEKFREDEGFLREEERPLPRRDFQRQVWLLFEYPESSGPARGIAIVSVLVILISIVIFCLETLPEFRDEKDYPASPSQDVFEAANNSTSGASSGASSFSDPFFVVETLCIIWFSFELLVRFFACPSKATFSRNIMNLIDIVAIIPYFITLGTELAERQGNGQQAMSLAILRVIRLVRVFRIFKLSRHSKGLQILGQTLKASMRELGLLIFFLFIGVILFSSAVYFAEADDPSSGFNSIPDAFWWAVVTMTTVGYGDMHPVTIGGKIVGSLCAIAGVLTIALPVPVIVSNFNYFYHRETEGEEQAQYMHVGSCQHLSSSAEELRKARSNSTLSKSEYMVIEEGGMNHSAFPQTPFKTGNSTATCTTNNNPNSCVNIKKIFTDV
T4 sequence (P22001 whole entry): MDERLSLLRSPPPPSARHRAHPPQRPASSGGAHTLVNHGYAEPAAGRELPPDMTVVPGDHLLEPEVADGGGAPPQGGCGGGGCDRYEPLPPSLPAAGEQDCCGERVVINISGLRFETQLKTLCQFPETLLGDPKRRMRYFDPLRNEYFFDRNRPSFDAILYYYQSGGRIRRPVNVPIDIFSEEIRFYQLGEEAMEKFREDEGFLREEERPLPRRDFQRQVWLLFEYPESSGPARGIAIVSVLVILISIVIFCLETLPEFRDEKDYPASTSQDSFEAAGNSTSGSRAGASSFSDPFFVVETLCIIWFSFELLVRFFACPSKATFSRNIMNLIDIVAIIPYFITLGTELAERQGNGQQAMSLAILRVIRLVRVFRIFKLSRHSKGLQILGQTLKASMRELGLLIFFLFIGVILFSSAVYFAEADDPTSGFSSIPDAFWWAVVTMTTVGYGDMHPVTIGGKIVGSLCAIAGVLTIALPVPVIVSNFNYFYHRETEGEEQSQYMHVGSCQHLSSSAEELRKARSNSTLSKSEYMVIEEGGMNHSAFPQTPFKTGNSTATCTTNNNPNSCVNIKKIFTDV

Turning to `CC[C@H](C)[C@H](N)C(=O)N[C@@H](CC(N)=O)C(=O)N[C@H](C(=O)N[C@@H](CCCCN)C(=O)N[C@H]1CSSC[C@@H]2NC(=O)[C@H](CCCCN)NC(=O)CNC(=O)[C@H](Cc3ccccc3)NC(=O)[C@H](CCCNC(=N)N)NC(=O)[C@H](CCSC)NC(=O)CNC(=O)[C@H](C)NC(=O)[C@H](CC(=O)O)NC(=O)[C@H](CCCCN)NC(=O)[C@@H]3CSSC[C@@H](C(=O)N[C@@H](Cc4ccc(O)cc4)C(=O)N[C@@H](CO)C(=O)O)NC(=O)[C@H](CCCNC(=N)N)NC(=O)[C@H](CSSC[C@H](NC(=O)[C@H](CCC(N)=O)NC(=O)[C@H](CCC(N)=O)NC(=O)[C@@H]4CCCN4C(=O)[C@H](CC(C)C)NC(=O)[C@H](CO)NC1=O)C(=O)N[C@@H]([C@@H](C)CC)C(=O)N[C@@H](CCCCN)C(=O)N1CCC[C@H]1C(=O)N3)NC(=O)[C@H](CCCCN)NC(=O)[C@H](CCCCN)NC(=O)[C@H](CC(N)=O)NC(=O)[C@H](CCSC)NC2=O)C(C)C` [Moka1], in data set [1], the “Selectivity ratio Kv1.1/Kv1.3” value is listed as >300. Also, the “Selectivity ratio Kv1.2/Kv1.3” value in data set [2] turned out to be 31. The “Selectivity ratio Kv1.6/Kv1.3” value in data set [3] is listed as >300. In addition, the “anti-CD3 PBMC/IL-2 IC50” value in data set [4] is given as “less potent in inhibiting IL-2 secretion”.
Molecule `CCCC[C@H](NC(=O)[C@@H]1CCCN1)C(=O)N[C@@H](CCC(=O)O)C(=O)N[C@@H](CCCC)C(=O)N[C@@H](CCCNC(=N)N)C(=O)N[C@H]1CSSC[C@@H]2NC(=O)[C@H](CCCCN)NC(=O)CNC(=O)[C@H](Cc3ccccc3)NC(=O)[C@H]([C@@H](C)CC)NC(=O)[C@H](CO)NC(=O)CNC(=O)[C@H]([C@@H](C)CC)NC(=O)[C@H](C)NC(=O)[C@H](C)NC(=O)[C@H](CC(C)C)NC(=O)[C@@H]3CSSC[C@@H](C(=O)N[C@@H](Cc4ccc(O)cc4)C(=O)N4CCC[C@H]4C(=O)N[C@@H](CCCNC(=N)N)C(=O)O)NC(=O)[C@H](CCCCN)NC(=O)[C@H](CSSC[C@H](NC(=O)[C@H](CCC(=O)O)NC(=O)[C@H](C(C)C)NC(=O)[C@H](CO)NC(=O)[C@H](C)NC(=O)[C@H](Cc4c[nH]cn4)NC1=O)C(=O)N[C@@H](CCCCN)C(=O)N[C@@H](CCC(N)=O)C(=O)N[C@@H](CCCCN)C(=O)N3)NC(=O)[C@H](CCCCN)NC(=O)[C@H](CCCCN)NC(=O)[C@H](CC(N)=O)NC(=O)[C@H](CCCC)NC2=O` [compound 4] (H-P[Nle]E[Nle]RCHASVECKQKCLAAIGSIFGKC[Nle]NKKCKCYPR-OH; disulfide 6-27, 12-32, 16-34) returned an IC50 in data set [5] of 0.15 nM. In data set [6], this molecule gave an AUC(0-inf) of 0.138 µM·h, a Cmax of 91.8 nM and a half-life of 2.7 h.
In data set [6], `CCCC[C@H](NC(=O)[C@@H]1CCCN1)C(=O)N[C@@H](CCC(=O)O)C(=O)N[C@@H](CCCC)C(=O)N[C@@H](CCCNC(=N)N)C(=O)N[C@H]1CSSC[C@@H]2NC(=O)[C@H](CCCCN)NC(=O)CNC(=O)[C@H](Cc3ccccc3)NC(=O)[C@H]([C@@H](C)CC)NC(=O)[C@H](CO)NC(=O)CNC(=O)[C@H]([C@@H](C)CC)NC(=O)[C@H](C)NC(=O)[C@H](C)NC(=O)[C@H](CC(C)C)NC(=O)[C@@H]3CSSC[C@@H](C(=O)N[C@@H](Cc4ccc(O)cc4)C(=O)N4CCC[C@H]4C(=O)N[C@@H](CCCNC(=N)N)C(=O)O)NC(=O)[C@H](CCCCN)NC(=O)[C@H](CSSC[C@H](NC(=O)[C@H](CCC(=O)O)NC(=O)[C@H](C(C)C)NC(=O)[C@H](CO)NC(=O)[C@H](C)NC(=O)[C@H](CO)NC1=O)C(=O)N[C@@H](CCCCN)C(=O)N[C@@H](CCC(N)=O)C(=O)N[C@@H](CCCCN)C(=O)N3)NC(=O)[C@H](CCCCN)NC(=O)[C@H](CCCCN)NC(=O)[C@H](CC(N)=O)NC(=O)[C@H](CCCC)NC2=O` [compound 14] (H-P[Nle]E[Nle]RCSASVECKQKCLAAIGSIFGKC[Nle]NKKCKCYPR-OH; disulfide 6-27, 12-32, 16-34) showed an AUC(0-inf) of 0.183 µM·h, a Cmax of 103 nM and a half-life of 1 h. The “Selectivity ratio Kv1.1/Kv1.3” value in data set [1] (setting [9]) is >9100. Moreover, the “Selectivity ratio Kv1.2/Kv1.3” value in data set [2] (setting [9]) amounted to 3384. Further, the “Selectivity ratio Kv1.6/Kv1.3” value in data set [3] (setting [9]) is reported as >9100. The same molecule showed an IC50 in data set [7] of 0.43 nM. For the same molecule, the “% inhibition of ear thickness (AUC of Δ ear thickness 0-48 hours)” value in data set [8] is 37.7% and 42.5%.
With `CCCC[C@@H]1NC(=O)[C@@H]2CSSC[C@H](NC(=O)[C@H](CCCNC(=N)N)NC(=O)[C@H](CCSC)NC(=O)[C@H](CC(=O)O)NC(=O)[C@H](CCSC)NC(=O)[C@@H](N)CC(N)=O)C(=O)N[C@@H](CO)C(=O)N[C@@H](C)C(=O)N[C@@H](CO)C(=O)N[C@@H](C(C)C)C(=O)N[C@@H](CCC(=O)O)C(=O)N[C@H]3CSSC[C@H](NC(=O)[C@H](CCCCN)NC(=O)[C@H](CCCCN)NC(=O)[C@H](CC(N)=O)NC1=O)C(=O)N[C@@H](CCCCN)C(=O)N[C@H](C(=O)N[C@@H](Cc1ccc(O)cc1)C(=O)N1CCC[C@H]1C(=O)N[C@@H](CCCNC(=N)N)C(N)=O)CSSC[C@H](NC(=O)[C@H](CCCCN)NC(=O)[C@H](CCC(N)=O)NC(=O)[C@H](CCCCN)NC3=O)C(=O)N[C@@H](CC(C)C)C(=O)N[C@@H](CCCCN)C(=O)N[C@@H](C)C(=O)N[C@@H]([C@@H](C)CC)C(=O)NCC(=O)N[C@@H](CO)C(=O)N[C@@H]([C@@H](C)CC)C(=O)N[C@@H](Cc1ccccc1)C(=O)NCC(=O)N[C@@H](CCCCN)C(=O)N2` [compound 21] (H-NMDMRCSASVECKQKCLKAIGSIFGKC[Nle]NKKCKCYPR-NH2; disulfide 6-27, 12-32, 16-34), the “Selectivity ratio Kv1.1/Kv1.3” value in data set [1] (setting [9]) is given as >12600. In addition, the “Selectivity ratio Kv1.2/Kv1.3” value in data set [2] (setting [9]) is 561. The “Selectivity ratio Kv1.6/Kv1.3” value in data set [3] (setting [9]) was 10360. Moreover, the IC50 in data set [4] (read-out: anti-CD3 PBMC/IL-2 IC50) stood at 0.05 nM.

The values are drawn from patent publication US20240182531A1, “KV1.3 Blockers” (priority 2021, published 2024).
